Measurements taken from ChEMBL document CHEMBL5614379, “The synthesis of 1,2,3-triazoles as binders of D-dopachrome tautomerase (D-DT) for the development of dual-targeting inhibitors” (Eur J Med Chem, 2024).
Active and inactive are the calls of the source. No cut-off for these calls is given here.

Tests used:
[1] = biological target: T1, Macrophage migration inhibitory factor (Homo sapiens) (UniProt P14174); experiment: Non-competitive inhibition of MIF (unknown origin) at 12.5 uM using pyruvic acid as substrate incubated for 10 mins by absorbance based analysis
T1 sequence (whole entry): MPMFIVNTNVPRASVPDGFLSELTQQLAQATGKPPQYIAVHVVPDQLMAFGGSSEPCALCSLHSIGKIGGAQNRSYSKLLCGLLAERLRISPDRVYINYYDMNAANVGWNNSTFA

[2] = biological target: D-dopachrome decarboxylase (Homo sapiens, UniProt P30046); experiment: Inhibition of DDT (unknown origin) expressed in Escherichia coli by absorbance based analysis

In the case of `COc1cccc2c1CC(NC(=O)c1cn(-c3ccc(Cl)c(C(F)(F)F)c3)nn1)CC2` (configuration not stated), the inhibition [1] is reported as “Active”.
Compound `O=C(O)c1cccc(-c2cc(C(=O)O)ncc2C(=O)O)c1` has an IC50 [2] of 27 µM.
